Assay results: patent US6608179B1, “Antibodies, that bind to HIV-2 transmembrane glycoprotein homodimer (gp 80)” (Institut Pasteur, priority 1988, dated 2003)

Key:
HIV-2 infected CEM cells = experiment: Effect of glucosidase inhibitor on production of viral proteins in HIV-2 infected cells; format: cell-based; details: castanospermine 1 mM, 16 hr [35S] methionine labeling, culture supernatants
Experimental: To confirm that gp80 was produced during the processing of envelope precursor, HIV-2 infected cells were labeled with [^35S] methionine in the absence or presence of the glucosidase inhibitor, castanospermine (Saul et al., 1983). Culture supernatants were then assayed by immunoprecipitation using an HIV-2 positive patient serum which recognizes several viral proteins.

HIV-2 infected cells [1] = details: in the presence of monensin; previous study (Rey et al., 1989); cited from earlier work
[2] = biological target: T1, binding of mAb 1H8 to gp80 (Human immunodeficiency virus type 2 subtype A, UniProt P04577); experiment: Peptide blocking of antibody signals in Western blot of HIV-2 virus pellet; details: 1 μg/ml of peptide p39′
T1 construct: cleaved by the cellular protease to give the extracellular glycoprotein gp125 and the transmembrane glycoprotein dimer gp80; endogenous in cells; host or cells: virus pellet from culture medium of HIV-2 infected CEM cells
T1 sequence (P04577 512-858 limits assumed): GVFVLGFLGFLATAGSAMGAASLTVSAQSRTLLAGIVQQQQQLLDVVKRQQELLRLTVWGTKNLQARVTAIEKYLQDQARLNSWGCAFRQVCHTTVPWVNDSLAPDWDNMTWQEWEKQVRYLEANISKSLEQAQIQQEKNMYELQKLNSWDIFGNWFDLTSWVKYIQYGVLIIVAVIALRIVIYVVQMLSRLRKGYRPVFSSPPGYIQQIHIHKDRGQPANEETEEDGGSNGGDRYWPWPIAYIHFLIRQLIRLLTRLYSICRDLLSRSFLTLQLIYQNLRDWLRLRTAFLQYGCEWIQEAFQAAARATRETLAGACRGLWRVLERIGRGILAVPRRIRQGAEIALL
Experimental: Extracts from the HIV-2 virus pellets were analyzed by Western blot assay using mAb 1H8 (section mAb) or anti-gp300 polyclonal antibodies (section S). Incubation with each antibody was carried out in the absence (lanes −) or presence (lanes +) of 10 μg of peptide p39′. The results of the autoradiography are shown.
To show the specificity of mAb 1H8 reactivity with gp80, a Western blot assay using extracts from HIV-2 virus pellet was carried out. After the transfer of proteins, nitrocellulose sheets were incubated with mAb 1H8 or anti-gp300 polyclonal antibodies in the absence or presence of 1 μg/ml of peptide p39′ (FIG. 5). […] In addition, a signal for gp36 was observed, but only after a prolonged exposure of the autoradiogram. […] These observations confirm that the reactivity of mAb 1H8 should be with the 26 amino acid residue corresponding to the amino acids 579 to 604 in the transmembrane glycoprotein of HIV-2. Consequently, a sequence corresponding to that of peptide p39′ should be present in gp80. The reactivity of anti-gp300 antibodies was not modified by peptide p39′. Therefore, these antibodies should interact with other epitopes than that corresponding to peptide 39′. […]

HIV-2 infected cells [3] = experiment: Incorporation of labeled sugars into HIV-2 glycoproteins in infected cells; format: cell-based; details: [3H] glucosamine, fucose, mannose; data not shown
Description: Extracts from HIV-2 infected cells metabolically labeled with [^3H] glucosamine and [^3H] fucose were immunoprecipitated using mAb 1H8 and anti-gp300 polyclonal antibodies. In accord with the previous results (FIGS. 3-6), anti-gp300 antibodies immunoprecipitated sugar labeled gp300, gp140, gp125, and gp80, whereas mAb 1H8 immunoprecipitated gp300, gp140, and gp80. All these proteins incorporated [^3H] glucosamine, whereas incorporation of [^3H] fucose mainly occurred in gp125 and gp80 (FIG. 7a). In these experiments, the labeling of gp36 with [^3H] glucosamine was observed faintly after a prolonged exposure of the autoradiogram (data not shown; similar to FIG. 1, Rey et al., 1989). The glycoprotein gp80 also can incorporate [^3H] mannose as is the case for gp300, gp140, and gp125 (data not shown).
For metabolic labeling of proteins, infected cells were incubated for 16 hours at 37° C. in MEM culture without L-methionine and serum, but supplemented with 200 μCi/ml [^35S] methionine. For metabolic labeling of glycoproteins, infected cells were incubated for 16 hours at 37° C. in MEM culture medium lacking serum and glucose but supplemented with 200 μCi/ml ^3H-Fucose or 200 μCi/ml ^3H-glucosamine.

Q: With O[C@H]1[C@H](O)[C@@H](O)CN2CC[C@H](O)[C@H]12 [castanospermine] as the molecule, how does the “production of gp80 and gp125” value (HIV-2 infected CEM cells) read?
A: markedly reduced

Q: And the “production of the major core protein (p26)” value (HIV-2 infected CEM cells)?
A: not significantly affected

Q: Which “135-kDa protein (gp135) in HIV-2 infected cells” value (HIV-2 infected cells [1]) does the source give for CC[C@@]1([C@@H]2O[C@@H]([C@H]3O[C@@](O)(CO)[C@H](C)C[C@@H]3C)C[C@@H]2C)CC[C@H]([C@]2(C)CC[C@]3(C[C@H](O)[C@@H](C)[C@@H]([C@@H](C)[C@@H](OC)[C@H](C)C(=O)O)O3)O2)O1 [monensin] here?
A: accumulated

Q: For “VTAIEKYLQDQARLNSWGCAFRQVCH [peptide p39′]”, which “effect of peptide on Western blot signals obtained with mAb 1H8” value [2] is on record?
A: completely abolished

Q: What about the “effect of peptide on reactivity of anti-gp300 antibodies” value [2] of the same molecule?
A: not modified

Q: For tunicamycin, which “incorporation of labeled sugars in gp80 and other glycoproteins” value (HIV-2 infected cells [3]) is on record?
A: completely blocked
